Assay results as given in US11389453B2, “Compositions and methods for treating chemosensory dysfunction” (Cyrano Therapeutics, Inc., priority 2005, dated 2022).
“Also recorded” adds a separate entry of the source. Marks after values point to notes of the source that are not given here.

Key:
Type in all cases: in vivo, human
[1] = test system: TRAIL; test: TRAIL in nasal mucus of patients with hyposmia before and after treatment with theophylline; details: for TRAIL: nasal mucus, patients with hyposmia (5)
[2] = test system: Nitric Oxide (NO); test: NO in nasal mucus of patients with hyposmia before and after theophylline treatment; details: for NO: nasal mucus, patients (12)
From the text: Table 33 in the examples illustrates NO in nasal mucus in patients treated with theophylline in various doses before and after drug treatment. NO levels in nasal mucus changed following the treatment of patients with smell loss. […] Its continual measurement during treatment of the disorders helps in monitoring efficacy of therapy. The detection of NO in nasal mucus provides a non invasive method of diagnosing various diseases related to human physiology and pathology. The methods of the present invention include treatment of diseases by modulating the concentrations of NO by use of drugs or agents. The method of treatment is preferably by nasal administration.
Table 33 illustrates NO levels in nasal mucus in patients treated with Theophylline in various doses before and after drug treatment. NO levels in nasal mucus changed following the treatment of patients with smell loss. […] Its continual measurement during treatment of these disorders helps in monitoring efficacy of therapy. The detection of NO in nasal mucus provides a non invasive method of diagnosing various diseases related to human physiology and pathology.

[3] = test system: TNFα; test: TNFα in nasal mucus of patients with hyposmia treated with theophylline; details: for TNF∝: nasal mucus, patients with hyposmia (24)
From the text: (§1) Table 35 illustrates detection and measurement of TNFα, and soluble TNF receptors 1 and 2, moieties in the nasal mucus. TNFα, and soluble TNF receptors 1 and 2 increase in systems undergoing excessive apoptosis.
(§2) These studies were extended to reveal levels of TNFα in nasal mucus of patients with graded loss of smell following treatment with theophylline (Table 36). Smell loss was graded such that loss was greatest in Type I hyposmia, less in Type II and still less in Type III (I>II>III). […] Following treatment which was effective in restoring smell function toward normal, levels of TNFα decreased in each patient group consistent with each increased dose of theophylline which generated a dose dependent increase in smell function—as theophylline dose increased, smell function increased and TNFα levels decreased. In Type I hyposmia TNFα decreased 40% after treatment with 400 mg theophylline and 57% after treatment 600 mg. In Type II hyposmia TNFα decreased 11% after treatment with 600 mg theophylline.

[4] = test system: TNFR 1; test: TNFR 1 in nasal mucus of patients with hyposmia treated with theophylline; details: for TNFR1: nasal mucus, patients with hyposmia (19)
From the text: as §1
With increased smell loss pre treatment TNFR 1 levels were increased in nasal mucus in patients with Type I hyposmia (whose smell loss was increased over that of patients with Type II hyposmia). […] The greater was the smell loss, the higher was the level of TNFR 1.

[5] = test system: TNFR 2; test: TNFR 2 in nasal mucus of patients with hyposmia treated with theophylline; details: for TNFR2: nasal mucus, patients with hyposmia (18)
Experimental: as §1
With a dose dependent increase of theophylline treatment levels of TNFR 2 in nasal mucus decreased consistent with a dose dependent increase in smell function. Levels of TNFR 2 in patients with Type I and Type II hyposmia decreased almost 50% on 600 mg theophylline consistent with their greatest return of smell function. At this highest level of theophylline levels of TNFR 2 were decreased in relationship to the decrease in smell function-TNFR 2, Type I>Type II>Type III; smell loss, Type I>Type II>Type III.

[6] = test system: patients with hyposmia; test: Smell function (olfactory acuity) in patients with hyposmia treated with theophylline
From the text: as §2

[7] = patients with hyposmia, stepwise increase in theophylline dose
[8] = hyposmia Type I (7), theophylline 200 mg orally daily
[9] = hyposmia Type I (7), theophylline 600 mg orally daily
[10] = hyposmia Type II (10), theophylline 200 mg orally daily
[11] = hyposmia Type II (10), theophylline 400 mg orally daily
[12] = hyposmia Type II (10), theophylline 600 mg orally daily
[13] = hyposmia Type III (2), theophylline 600 mg orally daily

In the case of Cn1c(=O)c2[nH]cnc2n(C)c1=O [theophylline], the TRAIL ([1]; theophylline 200 mg) is reported as 855 µg/mL, the TRAIL ([1]; theophylline 400 mg) is reported as 791 µg/mL and the TRAIL ([1]; theophylline 600 mg) is reported as 247 µg/mL. The “TRAIL in nasal mucus, change after treatment” value ([1]; patients with hyposmia, before vs after theophylline at various doses) was “dose-dependent decrease”, the NO ([2]; Theophylline 200 mg) was 0.25 ± 0.01 µg/mL and the NO ([2]; Theophylline 400 mg) was 0.40 ± 0.06 µg/mL. The NO ([2]; Theophylline 600 mg) was 0.59 ± 0.16 µg/mL, the “NO in nasal mucus, change after treatment” value ([2]; patients with hyposmia, theophylline in graded doses) was “increases in nasal mucus NO” and the “TNFα decrease in nasal mucus” value ([3]; Type I hyposmia, 400 mg theophylline) was 40%. The “TNFα decrease in nasal mucus” value ([3]; Type I hyposmia, 600 mg theophylline) was 57%, the “TNFα decrease in nasal mucus” value ([3]; Type II hyposmia, 600 mg theophylline) was 11% and the “TNF∝ in nasal mucus” value ([3]; hyposmia Type I (8), theophylline 400 mg orally daily) was 15.6. The “TNF∝ in nasal mucus” value ([3]; hyposmia Type I (8), theophylline 600 mg orally daily) was 11.2 ± 4.4^, the “TNF∝ in nasal mucus” value ([3]; hyposmia Type II (13), theophylline 200 mg orally daily) was 14.9 ± 2.5 and the “TNF∝ in nasal mucus” value ([3]; hyposmia Type II (13), theophylline 400 mg orally daily) was 11.5 ± 3.2. The “TNF∝ in nasal mucus” value ([3]; hyposmia Type II (13), theophylline 600 mg orally daily) was 4.3 ± 0.8^a, the “TNF∝ in nasal mucus” value ([3]; hyposmia Type III (3), theophylline 600 mg orally daily) was 1.2 ± 0.7^bc and the “TNF∝” value ([3]; Theophylline treatment 200) was 20.0 ± 2.8 µg/mL. For the same compound, the TNF∝ ([3]; Theophylline treatment 400) was 12.1 ± 2.1 µg/mL, the TNF∝ ([3]; Theophylline treatment 600) was 7.4 ± 1.8 µg/mL and the “TNFα in nasal mucus, change after treatment” value [3, 7] was “significant dose-response decrease”. For the same compound, the “TNFR 1 in nasal mucus” value [4, 8] was 6,521 ± 1,304^c, the “TNFR 1 in nasal mucus” value ([4]; hyposmia Type I (7), theophylline 400 mg orally daily) was 1,498 and the “TNFR 1 in nasal mucus” value [4, 9] was 1,832 ± 704^a. For the same compound, the “TNFR 1 in nasal mucus” value [4, 10] was 1,462 ± 371 ^, the “TNFR 1 in nasal mucus” value [4, 11] was 1,087 ± 335 and the “TNFR 1 in nasal mucus” value [4, 12] was 862 ± 335. The “TNFR 1 in nasal mucus” value [4, 13] was 585 ± 335, the TNFR1 ([4]; Theophylline treatment 200) was 3,148 ± 663 and the TNFR1 ([4]; Theophylline treatment 400) was 1,146 ± 220^b. The TNFR1 ([4]; Theophylline treatment 600) was 1,220 ± 286^ab, the “TNFR 1 in nasal mucus, change after treatment” value [4, 7] was “significant dose-response decrease; also recorded: TNFR 1 levels decreased in Type I” and the “TNFR 2 decrease in nasal mucus” value ([5]; Type I and Type II hyposmia, 600 mg theophylline) was roughly 50%. The “TNFR2 in nasal mucus” value [5, 8] was 3,100 ± 1,184, the “TNFR2 in nasal mucus” value [5, 9] was 1,491 ± 1,102 and the “TNFR2 in nasal mucus” value [5, 10] was 1,378 ± 480^. The “TNFR2 in nasal mucus” value [5, 11] was 1,014 ± 272, the “TNFR2 in nasal mucus” value [5, 12] was 553 ± 158 and the “TNFR2 in nasal mucus” value [5, 13] was 436 ± 443. For the same compound, the TNFR2 ([5]; Theophylline treatment 200) was 1,952 ± 339, the TNFR2 ([5]; Theophylline treatment 400) was 949 ± 180^c and the TNFR2 ([5]; Theophylline treatment 600) was 916 ± 344. For the same compound, the “TNFR 2 in nasal mucus, change after treatment” value [5, 7] was “significant dose-response decrease; also recorded: decreased”, the smell function ([6]; 600 mg theophylline) was “restored smell function to or toward normal” and the smell function ([6]; theophylline at various (graded) doses) was “returned smell function to normal in a dose-dependent manner; also recorded: graded increases in smell function; also recorded: stepwise improvement in olfactory acuity”.
